Data published in patent US9120749B2, “Quinoline derivatives and MELK inhibitors containing the same” (ONCOTHERAPY SCIENCE, INC., priority 2010, dated 2015).
Where a name gives a salt, the structure may show the parent alone. Read-outs that look alike come from different tables or passages of the source.

Columns and labels:
[1] = target: MELK (Homo sapiens, UniProt Q14680); assay: Kinase assay: MELK activity, phosphorylation of FITC-labeled histone H3 peptide measured by IMAP fluorescence polarization; format: biochemical; conditions: read-out: IC50 (μM) (kinase assay)
Chain of MELK (Q14680 whole entry, looked up): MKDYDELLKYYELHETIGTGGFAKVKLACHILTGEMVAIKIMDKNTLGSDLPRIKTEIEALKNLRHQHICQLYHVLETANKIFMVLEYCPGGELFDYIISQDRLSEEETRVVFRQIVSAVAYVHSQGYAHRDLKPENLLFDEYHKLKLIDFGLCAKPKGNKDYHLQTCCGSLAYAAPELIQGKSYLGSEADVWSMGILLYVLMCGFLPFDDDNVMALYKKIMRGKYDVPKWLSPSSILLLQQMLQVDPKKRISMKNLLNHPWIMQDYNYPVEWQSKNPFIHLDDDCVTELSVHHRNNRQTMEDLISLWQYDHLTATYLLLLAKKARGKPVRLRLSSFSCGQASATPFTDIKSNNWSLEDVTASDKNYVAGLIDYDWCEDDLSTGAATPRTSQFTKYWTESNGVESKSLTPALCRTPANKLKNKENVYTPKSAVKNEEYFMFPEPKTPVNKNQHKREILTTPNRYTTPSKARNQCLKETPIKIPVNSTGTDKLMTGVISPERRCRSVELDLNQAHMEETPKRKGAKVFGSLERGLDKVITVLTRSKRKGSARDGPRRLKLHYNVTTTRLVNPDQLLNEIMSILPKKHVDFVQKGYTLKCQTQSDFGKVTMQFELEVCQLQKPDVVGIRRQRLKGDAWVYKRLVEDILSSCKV
Method in brief: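 Polarization of fluorescence served as the signal for MELK turnover of FITC-conjugated histone H3 peptide. Binding solution quenched each reaction, and plates stood 0.5 hour at room temperature before reading.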

[2] = tested on: T47D cells; assay: Cell-based assay: anti-proliferative activity, Cell Counting Kit-8, 72 hours (T47D)
Method in brief: (§1)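 Target-specific cytotoxicity: seeded cells treated with MELK inhibitor candidates for 72 h, proliferation quantified via CCK-8, IC50 fitted.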

[3] = tested on: A549 cells; assay: Cell-based assay: anti-proliferative activity, Cell Counting Kit-8, 72 hours (A549); conditions: 72 hours
Method in brief: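 Cell Counting Kit-8 read-out of A549 growth after 72 hours of inhibitor exposure, cells plated in 96-well format. Values reported as IC50.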

[4] = tested on: HT-1197 cells; assay: Cell-based assay: anti-proliferative activity, Cell Counting Kit-8, 72 hours (HT-1197, negative control without MELK expression); conditions: HT1197 cells (negative control, no MELK expression), 72 hours
Method in brief: as §1

[5] = tested on: 22Rv1 cells; assay: Cell-based assay: anti-proliferative activity, Cell Counting Kit-8, 72 hours (22Rv1)
[6] = tested on: DU4475 cells; assay: Cell-based assay: anti-proliferative activity, Cell Counting Kit-8, 72 hours (DU4475)
[7] = MELK kinase assay, IMAP fluorescence polarization, 50 micro-M ATP

SMILES	IC50 [1, 7] [µM]	IC50 ([2]; Homo sapiens, T47D, 72 h) [µM]	IC50 ([3]; Homo sapiens, A549, 72 h) [µM]	IC50 ([4]; Homo sapiens, HT1197, 72 h) [µM]	IC50 ([5]; Homo sapiens, 22Rv1, 72 h) [µM]	IC50 ([6]; Homo sapiens, DU-4475, 72 h) [µM]	IC50 ([1]; hydrochloride) [µM]	IC50 ([2]; 72 hours, hydrochloride) [µM]	IC50 ([3]; hydrochloride) [µM]	IC50 ([4]; hydrochloride) [µM]	IC50 ([5]; hydrochloride) [µM]	IC50 ([6]; hydrochloride) [µM]	IC50 [1] [µM]
CC(=O)c1cnc2ccc(-c3cc(F)c(O)c(Cl)c3)cc2c1N[C@H]1CC[C@H](CN2CCCC(N)C2)CC1 (stereo partly drawn) [Example 818]	0.0043	0.022	0.14	2.7	0.064	0.071	–	–	–	–	–	–	–
CN(C)CCN1CCC(Nc2c(C(=O)C3CC3)cnc3ccc(-c4cc(F)c(O)c(Cl)c4)cc23)CC1 [Example 822, (6-(3-chloro-5-fluoro-4-hydroxyphenyl)-4-(1-(2-(dimethylamino)ethyl)piperidin-4-ylamino)quinolin-3-yl)(cyclopropyl)methanone]	0.0031	0.29	0.48	2.5	0.43	0.16	–	–	–	–	–	–	–
CC(=O)c1cnc2ccc(-c3cc(F)c(O)c(Cl)c3)cc2c1N[C@H]1CCC[C@@H](CN2CCN(C)CC2)C1 [Example 832, 1-(6-(3-chloro-5-fluoro-4-hydroxyphenyl)-4-((1S,3R)-3-((4-methylpiperazin-1-yl)methyl)cyclohexylamino)quinolin-3-yl)ethanone hydrochloride]	0.009	0.17	0.26	0.79	0.44	0.24	–	–	–	–	–	–	–
CC(=O)c1cnc2ccc(-c3cc(Cl)c(O)c(Cl)c3)cc2c1N[C@H]1CC[C@H](N(C)C)CC1 [Example 766, 1-(6-(3,5-dichloro-4-hydroxyphenyl)-4-(trans-4-(dimethylamino)cyclohexylamino)quinolin-3-yl)ethanone hydrochloride]	–	–	–	–	–	–	0.0017	0.074	0.14	1	0.1	0.06	–
CC(=O)c1cnc2ccc(-c3cc(Cl)c(O)c(Cl)c3)cc2c1Nc1cnn(C2CCN(C)C2)c1 (stereo not drawn) [Example 814, 1-(6-(3,5-dichloro-4-hydroxyphenyl)-4-((1-(1-methylpyrrolidin-3-yl)-1H-pyrazol-4-yl)amino)quinolin-3-yl)ethanone dihydrochloride]	0.0009	0.14	0.29	0.78	0.13	0.057	–	–	–	–	–	–	–
CC(=O)c1cnc2ccc(-c3cc(F)c(O)c(Cl)c3)cc2c1NC1CCCN(CCN(C)C)C1 (stereo not drawn) [Example 851, 1-(6-(3-chloro-5-fluoro-4-hydroxyphenyl)-4-(1-(2-(dimethylamino)ethyl)piperidin-3-ylamino)quinolin-3-yl)ethanone]	0.04	1.6	1.6	6	1.5	0.65	–	–	–	–	–	–	–
CC(=O)c1cnc2ccc(-c3cc(F)c(O)c(Cl)c3)cc2c1Nc1ccc(N2CCC(N)C2)nc1 (stereo not drawn) [Example 773, 1-(4-(6-(3-aminopyrrolidin-1-yl)pyridin-3-ylamino)-6-(3-chloro-5-fluoro-4-hydroxyphenyl)quinolin-3-yl)ethanone]	–	0.0042	0.028	0.7	0.0094	0.017	–	–	–	–	–	–	0.006
CCC(=O)c1cnc2ccc(-c3cc(F)c(O)c(Cl)c3)cc2c1Nc1ccc(N2CCC(N(C)C)C2)nc1 (stereo not drawn) [Example 860, 1-(6-(3-chloro-5-fluoro-4-hydroxyphenyl)-4-((6-(3-(dimethylamino)pyrrolidin-1-yl)pyridin-3-yl)amino)quinolin-3-yl)propan-1-one]	0.0062	0.14	0.29	3.6	0.45	0.24	–	–	–	–	–	–	–
CC(=O)c1cnc2ccc(-c3cc(Cl)c(O)c(Cl)c3)cc2c1Nc1cccc(CCN2CCN(C)CC2)c1 [Example 831, 1-(6-(3,5-dichloro-4-hydroxyphenyl)-4-(3-(2-(4-methylpiperazin-1-yl)ethyl)phenylamino)quinolin-3-yl)ethanone]	0.0054	1.1	0.32	11	0.83	0.12	–	–	–	–	–	–	–
CN(C)CCc1cccc(Nc2c(C(=O)C3CC3)cnc3ccc(-c4cc(F)c(O)c(F)c4)cc23)c1 [Example 796, cyclopropyl(6-(3,5-difluoro-4-hydroxyphenyl)-4-(3-(2-(dimethylamino)ethyl)phenylamino)quinolin-3-yl)methanone]	–	0.43	0.14	0.67	0.52	0.14	–	–	–	–	–	–	0.026
CC(=O)c1cnc2ccc(-c3cc(F)c(O)c(Cl)c3)cc2c1N[C@H]1CCC[C@H](CCN(C)C)C1 [Example 862, 1-(6-(3-chloro-5-fluoro-4-hydroxyphenyl)-4-(((1S,3R)-3-(2-(dimethylamino)ethyl)cyclohexyl)amino)quinolin-3-yl)ethanone hydrochloride]	0.0067	0.26	0.29	1.1	0.2	0.2	–	–	–	–	–	–	–
O=C(c1cnc2ccc(-c3cc(F)c(O)c(Cl)c3)cc2c1Nc1cccc(CCN2CCCC2)c1)C1CC1 [Example 799, {6-(3-Chloro-5-fluoro-4-hydroxyphenyl)-4-[3-(2-(pyrrolidin-1-yl)ethyl)phenylamino]quinolin-3-yl}(cyclopropyl)methanone]	–	0.52	0.081	10	0.25	0.079	–	–	–	–	–	–	0.0047
CCN(C)C[C@H]1CC[C@H](Nc2c(C(C)=O)cnc3ccc(-c4cc(Cl)c(O)c(OC)c4)cc23)CC1 [Example 816, 1-(6-(3-chloro-4-hydroxy-5-methoxyphenyl)-4-(1R,4R)-4-((ethyl(methyl)amino)methyl)cyclohexylamino)quinolin-3-yl)ethanone hydrochloride]	0.0027	0.28	0.25	7.3	0.44	0.36	–	–	–	–	–	–	–
CC(=O)c1cnc2ccc(-c3cc(Cl)c(O)c(Cl)c3)cc2c1N[C@H]1CC[C@H](N(C)C)CC1 [Example 765, 1-{6-(3,5-Dichloro-4-hydroxyphenyl)-4-[trans-4-(dimethylamino)cyclohexylamino]quinolin-3-yl}ethanone]	–	0.081	0.17	1.7	0.14	0.047	–	–	–	–	–	–	0.0022
CC(=O)c1cnc2ccc(-c3cc(Cl)c(O)c(Cl)c3)cc2c1NC1CCN(CCN(C)C)CC1 [Example 823, 1-(6-(3,5-dichloro-4-hydroxyphenyl)-4-(1-(2-(dimethylamino)ethyl)piperidin-4-ylamino)quinolin-3-yl)ethanone]	0.0027	0.21	0.45	2.6	0.32	0.16	–	–	–	–	–	–	–
CC(=O)c1cnc2ccc(-c3cc(F)c(O)c(Cl)c3)cc2c1N[C@H]1CC[C@H](CN2CCC(N)C2)CC1 (stereo partly drawn) [Example 786, 1-(4-(1R,4R)-4-((3-aminopyrrolidin-1-yl)methyl)cyclohexylamino)-6-(3-chloro-5-fluoro-4-hydroxyphenyl)quinolin-3-yl)ethanone hydrochloride]	–	0.07	0.96	10	0.17	0.23	–	–	–	–	–	–	0.0031
